Assay results reported in patent US20070020193A1, “Dronabinol compositions and methods for using same” (priority 2005, published 2007).
Entries after “also recorded” stand apart in the source; their conditions may differ.

Assays:
[1] = Example 1 single rising dose inhaled delta-9-THC study: plasma pharmacokinetics
Procedure: A randomized, double blind, placebo controlled, three way crossover, single rising dose human clinical study in two sequential groups (Groups I and II) of nine young healthy male subjects (18-45 years of age and body mass index (BMI) of 20-26 kg/m^2) of a metered dose inhalation composition according to one embodiment the present invention was conducted. Each subject received two ascending single doses of inhaled delta-9-THC and one single dose of inhaled placebo according to a three-way crossover balanced incomplete block design. The administered composition is detailed in Table 1. Composition I provides 0.3 mg per actuation, while Composition II provides 1.2 mg per actuation.
Each sequential dose level or period was separated by a washout period of two weeks, during which an interim safety and pharmacokinetic analysis was performed. A third group (Group III) of nine elderly healthy male and female subjects (65-80 years old and BMI 18-30 kg/m^2) was added after completion of the sixth study period to participate in a single treatment period. […] Five dose levels were evaluated: 0.3 mg, 1.2 mg, and 2.4 mg in Group I, 3.6 mg, 7.2 mg, and 9.6 mg in Group II, and 3.6 mg in Group III. Subjects were confined to the study center from the day prior to dosing until the 48 hour blood sample. Subjects returned to the center for 72, 96 and 120 hour pharmacokinetic samples. Various pharmacokinetic and pharmacodynamic measurements and sampling were taken according to the Assessment Flow Charts in FIG. 1 and FIG. 2. Safety was measured by monitoring adverse events, physical examination, clinical laboratory and pulmonary function tests, vital signs, 12 lead ECG, and telemetry.
Safety, pharmacokinetic and pharmacodynamic variables were estimated. Plasma concentrations of delta-9-THC (THC), 11-hydroxy-tetrahydrocanabinol (11-OH-THC) and delta-9-tetrahydrocannbinol-carboxylic acid (THC-COOH) were determined for pharmacokinetic analysis.
Whole blood samples were collected according to the assessment flowchart in EDTA tubes through venepuncture or indwelling catheter. Samples were immediately placed on ice and subsequently centrifuged within 30 minutes at 1,500 g for 10 minutes. Plasma was transferred into a 5 ml screw cap polypropylene tube, stoppered and stored at below minus 20° C. until transfer to the analytical laboratory for analysis. […] The measurement ranges were 0.05-30 ng/ml for delta-9-THC, 0.04-30 ng/ml for 11-OH-THC, and 0.25-10 ng/ml for THC-COOH.
Number of subjects, mean, standard deviation, coefficient variable (%) and geometric mean were calculated for all pharmacokinetic parameters.
For Example 1: A mixed ANOVA model with group and dose fixed effect and subject within group by dose as random effect was performed on the logarithms of the dose normalized pharmacokinetic parameters AUC, AUC0-t and Cmax. The overall treatment effect was tested by conventional F-test with Satterthwaites correction. Dose proportionality was tested using Helmert Contrasts and Reverse Helmert Contrasts. The within and between subject coefficient of variances were calculated from the estimated covariance parameters. Per dose level geometric means with 90% confidence interval were calculated for the dose-normalized values from the least squared means analysis outcomes. The difference between young and elderly subjects was explored using a one-way ANOVA.

[2] = test system: healthy subjects; test: Example 1: heart rate and blood pressure; type: in vivo, human
Source text: Heart rate, conjunctiva congestion, subjective ratings, and a battery of computerized cognitive tests were used to evaluate pharmacodynamics. FIG. 11a-b are plots of mean baseline adjusted heart rate for Groups I-III. FIG. 12a-c show plots of placebo corrected diastolic blood pressure. […] FIG. 14a-b present comparisons of Active versus Placebo alertness and a plot of change in self-rated alertness. FIG. 15a-b show comparisons of Active v. Placebo for calmness and a plot of change in self-rated calmness.
For Examples 1 and 2: Heart rate was obtained from the blood pressure recordings or using telemetry.
(§1) Absolute values of heart rate and conjunctive congestion scores were used to calculate changes from baseline.
For Example 1: All pharmacodynamic variables were evaluated using descriptive statistics for all study evaluations.

[3] = test system: healthy subjects; test: Example 1: conjunctiva congestion rating; type: in vivo, human
Source text: (§2) Conjunctiva Congestion was rated by a trained observer on a scale of 0-3 based on the blood vessels present as follows:
(§3) 0—None (The white of the eye was not affected)
(§4) 3—Considerable (The compete white of the eye is red caused by a pattern of bigger vessels. This is associated with complaints.)
as §1

[4] = test system: healthy subjects; set-up: species or system human; conditions: in vivo
[5] = test system: healthy subjects; test: Example 2: conjunctiva congestion rating; type: in vivo, human
Source text: as §2, §3, §4
Changes from baseline in conjunctiva congestion and heart rate were compared for all time-points measured, and summarized using descriptive statistics. Subjective ratings were individually tabulated and sorted by treatment group, subject number, and time, and summarized using descriptive statistics. Separate tables were provided to summarize differences between males and females if applicable. Pharmacodynamic assessments were compared with delta-9 THC and 11-OH-THC blood concentrations and summarized using descriptive statistics.

CCCCCc1cc(O)c2c(c1)OC(C)(C)[C@@H]1CCC(C)=C[C@@H]21 [delta-9-THC, delta-9-tetrahydrocannabinol]
Cmax and AUC versus dose ([1]; 7.2 and 9.6 mg doses): less than proportional increase
Cmax and AUC versus dose ([1]; Groups I and II, doses from 0.3-3.6 mg): dose-related increase
Cmax ([1]; male, human, plasma, inhaled, 2.4 mg): 23.6 ng/mL
effect on heart rate ([2]; 0.3 mg dose, Groups I-II): did not differ markedly from that observed with placebo
duration of heart rate increase ([2]; 1.2 mg): 5 min
increase in heart rate relative to placebo ([2]; 1.2 mg, 5 minutes after dosing): approximately 12 bpm
duration of heart rate increase ([2]; 2.4 mg): about 15 minutes
largest effect on heart rate, increase compared to placebo ([2]; 7.2 mg): about 46 bpm
duration of heart rate increase ([2]; 9.6 mg): about 2.0 hours
time of return of heart rate to normal after dosing ([2]; Group III (elderly, 3.6 mg)): 5 min
heart rate increase ([2]; Group III (elderly, 3.6 mg), at 2 minutes): 10 bpm
placebo corrected diastolic and systolic blood pressure ([2]; across the dose levels investigated): no clear dose-relationship
duration of effect on heart rate ([2]; after single dosing): approximately 2 hours
time of maximum effect on heart rate ([2]; after single dosing): 2 to 5 min
placebo corrected heart rate ([2]; between 0.17 and 5 hours post dose): dose related increase
number of occurrences of slight congestion ([3]; 9.6 mg dose group): 3
conjunctiva congestion ([3]; 0.3 to 7.2 mg doses): no or substantially no conjunctiva congestion
occurrence of slight conjunctiva congestion ([3]; each of the 3.6 and 7.2 mg doses): once
Choice reaction time [4]: Significant decrements
Digit Vigilance [4]: slight decrement; also recorded: more marked decrements; also recorded: marked decrement
Digit Vigilance, primary analysis [4]: failed to show significant dose-time interaction
Immediate word recall [4]: No significant differences
Numeric Working Memory Speed [4]: significant decrements
Numeric Working memory sensitivity index [4]: No significant differences
Spatial Working Memory Sensitivity Index [4]: No significant differences
Spatial Working Memory Speed [4]: No significant differences
delay of effects on VAS [4]: up to two hours
delay of effects on cognitive functioning [4]: up to one hour
delayed word recall, analysis [4]: significant main effect of dose
picture recognition sensitivity index [4]: did not show any significant differences
picture recognition speed [4]: No significant differences
word recognition speed [4]: did not show any significant differences
word sensitivity index (word recognition) [4]: No significant differences
subjects with slight conjunctiva congestion ([5]; 1.2 mg, Day 12, 10 minutes after dosing): only one subject
time to resolution of conjunctiva congestion post-dose ([5]; 1.2 mg, Day 12, one subject): ≤ 4 h
conjunctiva congestion, rest of the study ([5]; Groups I and II (1.2 mg and 3.6 mg)): No other observation of conjunctiva congestion
